How the values were obtained:
[1] = test system: cryopreserved hepatocytes; assay: Rank order of stability in cryopreserved hepatocytes across species; assay type: in vitro ADME, human, mouse, rat, dog, minipig and monkey; conditions: 10 μM, up to 4 hours
Procedure: (§1) The formation of SRA737-related metabolites was determined in cryopreserved hepatocytes from human, mouse, rat, dog, minipig and monkey samples after incubation with SRA737 at a nominal concentration of 10 μM for up to 4 hours. […] In the human hepatocyte preparation, approximately 67% of the parent remained after 4 hours of incubation compared to 75% and 7% in the rat and minipig preparations, respectively. Eight human SRA737 metabolites were observed. All SRA737 metabolites formed by human hepatocytes were also formed by monkey hepatocytes. Six metabolites were present at equal or greater abundance in the monkey.

[2] = Excretion of SRA737 in mice; assay type: in vivo, mouse; conditions: 24-hour collection
Procedure: The excretion of SRA737 has been studied in mice and rats administered SRA737 at either 5 mg/kg IV or 10 mg/kg orally. Urine and feces were collected for a 24-hour period after dosing. In mice, renal excretion of intact SRA737 was consistently low (less than 10% of dose) after both oral and IV administration. Following IV administration of SRA737, less than 8% of the dose was recovered as intact drug in the feces while after oral administration this figure was less than 3%. Excretion of intact SRA737 was lower in the rat than in the mouse with <1% of dose excreted renally over 24 hours and less than 1.5% of dose excreted into the feces over 24 hours.

CXCL10 and CCL5 = assay: qPCR of CXCL10 and CCL5 in MBT-2 tumors; assay type: in vivo, mouse
From the text: FIGS. 23A-D show the qPCR measurement of CXCL10 and CCL5 mRNA expression in MBT-2 (FIG. 23A and FIG. 23B) and MC38 (FIG. 23C and FIG. 23D) tumors resected after 7 or 14 days of treatment with SRA737 5/7 days. Data presented as mean±SD and p values by t-test * p<0.05, **p<0.01, ***p<0.001.
Real-time PCR was done using SYBR Select Master Mix (Life Technologies, cat #4472908) according to the manufacturer's protocol. Primers were purchased from Sigma Aldrich, Inc. Triplicate PCR reactions were run on ABI (7500 Fast Real Time PCR System). The comparative Ct method using the average 2ΔΔCT value for each set of triplicates was used, and the average of the biological replicates was calculated. Negative controls were included for every primer set, and GAPDH was used as the […].
The flank of immunocompetent mice was then treated with SRA737 monotherapy for 5-days-on/2-days-off for either one or two cycles and the expression of CCL5 and CXCL10 in extracted tumors were analyzed. […] The previously used dosing regimen of 5-days-on/2-days-off was modified to a schedule of 7-days-on/7-days-off for SRA737 treatment with or without co-treatment with anti-PD1 (Days 3, 7 and 11) based on the results of induction of chemokines secretion after 7 days.

STING pathway = assay: Western blot of STING pathway markers in SCLC cell lines; assay type: cell-based; conditions: H1694 and H847 cell lines; 1 μM; 24 and 72 hours
Procedure: (§2) Western blot analysis was performed using SDS-PAGE followed by transfer to nitrocellulose membrane using the BioRad Gel system. Membranes were incubated in the following primary antibodies (1:1000) overnight: PD-L1 (CST), total and phospho- (S366) STING (CST), total and phospho- (S396) IRF3 (CST), phospho-YH2AX (CST) and Actin (Sigma). Secondary anti-rabbit, HRP-linked antibodies were purchased from Cell Signaling Biosciences and detected using the Chemidoc imaging system mage-captured with Image Studio Version 3.1 software.

PD-L1 = assay: Western blot of total PD-L1 in SCLC cell lines; assay type: cell-based; conditions: all SCLC cell lines tested; 1 μM for 72 hours
Procedure: as §2

MC38 = MC38 colon flank tumor growth in immunocompetent mice; assay type: in vivo, mouse
Procedure: Tumors were evaluated twice weekly for the duration of the study. Tumor volumes were measured on all mice three times per week and calculated (width^2×length×0.4) using manual calipers. Once the average tumor size was in the range of 120-150 mm^3, mice were randomized into dosing groups using stratified sampling by assigning three animals per group for short-term reverse-phase protein array analysis and long-term treatment. Dosing schedules and duration varied depending on the study. Mice were weighed three times per week for the duration of the study, and a decrease in body weight >15% was considered indicative of a toxic dose. The Student t-test was used to determine statistical significance between compound- and vehicle-treated groups.
Tumors cells were implanted into the flank of immunocompetent mice. Once the volumes of the tumor reached 150-200 mm^3, the mice were randomized and treated with either monotherapy of SRA737 at 100 mg/kg for 5-days-on/2-days-off p.o., anti-PD1 BIW at 10 mg/kg i.p. or the combination thereof.

human hepatocytes = assay: Stability and metabolites in cryopreserved hepatocytes, human; assay type: in vitro ADME; conditions: 10 μM, up to 4 hours
Procedure: as §1

SCLC cell lines = assay: CellTiter-Glo cell viability assay, SCLC cell line panel; assay type: cell-based, human and murine; conditions: 96 h
Procedure: SCLC cell lines were incubated with dimethyl sulfoxide (vehicle control), SRA737 or Gemcitabine for 96 hours at nine distinct concentrations, with the maximum dose being 10 μM. A CellTiter-Glo luminescent cell viability assay (Promega) was performed after 96 hours of treatment as per the manufacturer's specifications. IC50 values were estimated using Drexplorer, as previously described (Tong P, Coombes K R, Johnson F M, Byers L A, Diao L, Liu D D, Lee J J, Heymach J V, Wang J. drexplorer: A tool to explore dose-response relationships and drug-drug interactions. Bioinformatics. 2015 May 15; 31(10):1692-4.)
To investigate the in vitro activity of SRA737, a panel of 51 SCLC cell lines, including one murine derived model, and a panel of NSCLC, pancreatic, colon and bladder cancer cell lines were screened.

rank order of stability from most stable to least stable [1]: rat≈mouse >monkey≈human >>dog >>minipig
dose recovered as intact drug in the feces ([2]; IV administration): less than 8 % of dose
dose recovered as intact drug in the feces ([2]; oral administration): less than 3 % of dose
human SRA737 metabolites observed (human hepatocytes): Eight
Compound: N#Cc1cnc(Nc2cc(NCC3CNCCO3)c(C(F)(F)F)cn2)cn1 (stereo not shown) [SRA737, 5-[[4-[[morpholin-2-yl]methylamino]-5-(trifluoromethyl)-2-pyridyl]amino]pyrazine-2-carbonitrile]
CCL5 levels (CXCL10 and CCL5; after 7 days, p<0.01): significantly induced
CCL5 levels (CXCL10 and CCL5; after 14 days): no significant difference
CXCL10 expression (CXCL10 and CCL5; after both 7 days and 14 days, p<0.05): significant induction
STING pathway (pSTING_S366, STING, pIRF3_S396 and IRF3) (STING pathway): Activation of the STING pathway
total PD-L1 levels (PD-L1): significantly increased
TGI (MC38; SRA737 100 mg/kg 5-days-on/2-days-off p.o., anti-PD1 BIW 10 mg/kg i.p.): 48%
tumor growth inhibition (MC38; altered regimen SRA737 7-days-on/7-days-off, anti-PD-1 Days 3, 7 and 11): 61%
IC50 (SCLC cell lines; SCLC cell lines classified resistant (n=35)): > 5 µM
IC50 (SCLC cell lines; SCLC cell lines classified sensitive (n=15)): < 5 µM
